# Experiments:
# Assay type in all cases: in vivo
# [1] = Dog ocular hyperemia; details: Conc. 0.1 g/100 mL
# [2] = Monkey intraocular pressure (Max. ΔIOP); details: Primates, Conc. 0.1 g/100 mL
# [3] = Rabbit ocular hyperemia; details: Conc. 0.1 g/100 mL
# [4] = Dog intraocular pressure (Max. ΔIOP); details: Canis lupus familiaris, Conc. 0.1 g/100 mL
smiles,measurement,setting,value
CCCCCCc1ccc([C@@H]2[C@@H](C/C=C\CCCC(=O)O)[C@H](Cl)C[C@H]2O)cc1 [compound 6],DOG Max. hpyeremia,[1],0.6
same,change in vivo at 1000 µg/mL,[2],32%
same,RABBIT Max. hyperemia,[3],0.25
same,change in vivo at 1000 µg/mL,[4],-43%

# Reference: patent US7585895B2, “Therapeutic substituted cyclopentanes” (Allergan, Inc., priority 2005, dated 2009)
